Our source for the IC50 values is patent US12404260B2, “Pyridine rings containing derivatives as MALT1 inhibitors” (Janssen Pharmaceutica NV, priority 2019, dated 2025).

The target of the test is T1, full-length MALT1 protein (Strep-MALT1(1-824)-His) (Homo sapiens, UniProt Q9UDY8).
T1 construct: full-length MALT1 protein (Strep-MALT1(1-824)-His) purified from baculovirus-infected insect cells; Strep (N); His (C); made in house; host or cells: baculovirus-infected insect cells
T1 sequence (Q9UDY8 1-824): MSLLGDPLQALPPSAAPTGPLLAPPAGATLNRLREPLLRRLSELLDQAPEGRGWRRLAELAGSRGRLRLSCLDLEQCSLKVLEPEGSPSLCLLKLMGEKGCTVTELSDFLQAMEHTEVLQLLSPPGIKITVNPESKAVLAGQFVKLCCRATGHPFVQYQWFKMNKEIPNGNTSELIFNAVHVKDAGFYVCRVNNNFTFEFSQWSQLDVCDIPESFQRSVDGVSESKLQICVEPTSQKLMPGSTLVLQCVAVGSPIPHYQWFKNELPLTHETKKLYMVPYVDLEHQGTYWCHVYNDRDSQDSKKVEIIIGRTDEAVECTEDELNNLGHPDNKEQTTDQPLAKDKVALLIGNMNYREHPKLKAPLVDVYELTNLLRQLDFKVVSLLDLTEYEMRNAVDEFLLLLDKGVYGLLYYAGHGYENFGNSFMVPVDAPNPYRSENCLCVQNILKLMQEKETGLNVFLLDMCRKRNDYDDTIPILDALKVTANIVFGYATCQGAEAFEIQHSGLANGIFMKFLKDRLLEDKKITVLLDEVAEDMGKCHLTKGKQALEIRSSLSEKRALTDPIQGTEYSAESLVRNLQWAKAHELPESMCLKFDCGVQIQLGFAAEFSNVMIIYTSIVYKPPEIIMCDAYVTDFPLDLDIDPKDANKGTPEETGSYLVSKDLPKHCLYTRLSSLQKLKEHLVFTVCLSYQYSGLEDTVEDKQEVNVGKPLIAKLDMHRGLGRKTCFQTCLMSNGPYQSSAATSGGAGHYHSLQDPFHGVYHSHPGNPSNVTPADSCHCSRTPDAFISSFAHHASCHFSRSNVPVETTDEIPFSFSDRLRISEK
As to the kind of experiment: MALT1 Biochemical Protease Assay. The settings on record: 10 nM FL MALT1, 200 μM Ac-LRSR-AMC, 50 min pre-incubation, 4 h at RT; read-out: MALT1_Biochemical activity (Ac-LRSR-amc) IC50. As for the experimental part:
MALT1 protease activity was assessed in an in vitro assay using a tetrapeptide as substrate and full-length MALT1 protein (Strep-MALT1(1-824)-His) purified from baculovirus-infected insect cells. The tetrapeptide LRSR is coupled to AMC (7-amino-4-methylcoumarin) and provides a quenched, fluorescent substrate for the MALT1 protease (SM Biochemicals). Cleavage of AMC from the Arginine residue results in an increase in coumarin fluorescence measured at 460 nm (excitation 355 nm). The final assay buffer consisted of 10 nM FL MALT1 protein, 200 μM Ac-LRSR-AMC, 50 mM Tris pH 7.5, 0.6 M Citrate, 1 mM DTT, 1 mM EDTA, 0.05% BSA and 1.5% DMSO. Test compounds were spotted at 50 nL in 100% DMSO per well of a black 384-Proxiplate (Perkin Elmer). Test compound concentrations ranged from 30 μM to 0.5 nM using 11 dilution steps (1:3). Background signal was measured from control wells containing assay buffer without enzyme which functions as low control (LC). High control (HC) values were generated using the reaction with enzyme but no compound treatment. Compounds were pre-incubated with MALT1 enzyme for 50 minutes at RT. Substrate was added subsequently and fluorescence was measured in Labsystems fluoroskan at excitation 355 nm and emission 460 nm to determine time 0. The reaction was subsequently incubated for 4 h at RT and fluorescence was measured. For IC50 calculations, timepoint 0 was subtracted from the 4 h timepoint to correct for any potential autofluorescence of the compounds. The enzyme reaction was linear during the 4 h incubation period. Characterization of the substrate Ac-LRSR-AMC determined the Michaelis constant KM at 200 μM.
IC50 values were calculated using the following formula (Z prime should be >0.5): […]
A best-fit curve was fitted by a minimum sum of squares method to the plot of % Controlmin vs. compound concentration. From this an IC50 value (inhibitory concentration causing 50% inhibition) can be obtained. An estimate of the slope of the plot in terms of the Hill coefficient was also obtained.
Used in “Lexis Dose Response Curve Fitting” Version 1.0.

Turning to `COC(C)c1c(NC(=O)Nc2cnc(-n3nccn3)c(Cl)c2)cncc1OC1CC1` (racemic) [Co. 13], the IC50 (usually the concentration that inhibits the measured activity by half) is 850 nM.

`COC(C)c1c(F)cncc1NC(=O)Nc1cnc(-n2nccn2)c(Cl)c1` (racemic) [Co. 21]: the IC50 was 2630 nM.

For `COC(C)c1c(NC(=O)Nc2cnc(-n3nccn3)c(Cl)c2)cncc1C(C)C` (racemic) [Co. 30], the half-inhibitory concentration (IC50) was found to be 2140 nM.

As to `COC(C)c1c(NC(=O)Nc2cnc(-n3nccn3)c(Cl)c2)cncc1C1COC1` (racemic) [Co. 31], the concentration for half-maximal inhibition (IC50) worked out at 1230 nM.

As for `CNc1cncc(NC(=O)Nc2cnc(-n3nccn3)c(Cl)c2)c1C(C)OC` (racemic) [Co. 33], the IC50 worked out at 1820 nM.

Take `COC(C)c1c(Br)cnc(C)c1NC(=O)Nc1cnc(-n2nccn2)c(Cl)c1` (racemic) [Co. 50]: the IC50 is 7410 nM.

As for `COC(C)c1c(Br)cncc1NC(=O)Nc1cnc(-n2nccn2)c(Cl)c1` (single isomer, unassigned) [Co. 19], the IC50 worked out at 2750 nM.

As for `CO[C@@H](C)c1c(NC(=O)Nc2cnc(OC(F)F)c(Cl)c2)cnc(N)c1Cl` (single isomer, unassigned) [Co. 135], the IC50 was 2000 nM.

For the compound `CO[C@@H](C)c1c(NC(=O)Nc2cnc(-n3nccn3)c(Cl)c2)cncc1OCc1ccccc1` [Co. 2], the concentration for half-maximal inhibition (IC50) came to 2400 nM.

As to `COC(C)c1c(NC(=O)Nc2cnc(-n3nccn3)c(Cl)c2)cncc1OCc1ccccc1` (centres unmarked) [Co. 3], the IC50 was above 30200 nM.

Take `CO[C@@H](C)c1c(O)cncc1NC(=O)Nc1cnc(-n2nccn2)c(Cl)c1` [Co. 5]: the IC50 came out at 2630 nM.

Turning to `COC(C)c1c(O)cncc1NC(=O)Nc1cnc(-n2nccn2)c(Cl)c1` (centres unmarked) [Co. 6], the IC50 amounted to 24000 nM.

Turning to `COc1cncc(NC(=O)Nc2cnc(-n3nccn3)c(Cl)c2)c1C(C)OC` (centres unmarked) [Co. 7], the IC50 stood at 170 nM.

Consider `CO[C@@H](C)c1c(NC(=O)Nc2cnc(-n3nccn3)c(Cl)c2)cncc1OC(C)C` [Co. 10], for which the IC50 amounted to 3020 nM.

For the compound `COC(C)c1c(NC(=O)Nc2cnc(-n3nccn3)c(Cl)c2)cncc1OCC1CC1` (centres unmarked) [Co. 11], the IC50 came to 1740 nM.

On to `COC(C)c1c(NC(=O)Nc2cnc(-n3nccn3)c(Cl)c2)cncc1OC1COC1` (centres unmarked) [Co. 12], for which the IC50 stood at 1700 nM.

Take `COC(C)c1c(NC(=O)Nc2cnc(-n3nccn3)c(Cl)c2)cncc1OCC(N)=O` (centres unmarked) [Co. 16]: the IC50 worked out at 1410 nM.

For `COC(C)c1c(NC(=O)Nc2cnc(-n3nccn3)c(Cl)c2)cncc1NC(C)C` (centres unmarked) [Co. 32], the IC50 is 2820 nM.

With `COC(C)c1c(NC(=O)Nc2cnc(-n3nccn3)c(Cl)c2)cnc(C2CC2)c1Br` (centres unmarked) [Co. 47], the IC50 was determined as 8710 nM.

As to `COC(C)c1c(Br)cnc(C2CC2)c1NC(=O)Nc1cnc(-n2nccn2)c(Cl)c1` (centres unmarked) [Co. 48], the IC50 was above 30200 nM.
